Where a name gives a salt, the structure may show the parent alone.
Biological target: TYK2 JH2 pseudokinase (Homo sapiens, UniProt P29597)
Experiment: Inhibitory activity on TYK2 JH2 pseudokinase (TR-FRET)
Type: binding
Details: 60 min room temperature, read-out: Kinase half maximal inhibitory concentration IC50 TYK2 JH2
Method: In this experiment, the inhibitory effect of compounds on TYK2 JH2 pseudokinase was tested using the method of time-resolved fluorescence resonance energy transfer (TR-FRET). In the experiment, TYK2 JH2 or JAK1 JH2 pseudokinase can simultaneously bind to fluorescently labeled Tracer and Tb antibody to form a “sandwich structure”. Tb antibody, functioning as a fluorescent donor, produces fluorescence at a wavelength of 495 nm under the excitation of light at a specific wavelength. Tracer, functioning as a fluorescent acceptor, can receive fluorescence at a wavelength of 495 nm and thus produce fluorescence at a wavelength of 520 nm, i.e., a time-resolved fluorescence resonance energy transfer (TR-FRET) signal, only when it is within the “sandwich structure”, i.e., when it is sufficiently close to Tb antibody. When the compound is added to compete with Tracer for binding to the pseudokinase, the binding of Tracer decreases, leading to a weakened TR-FRET signal. The inhibitory activity of the compound binding to the pseudokinase can be reflected by the ratio of signal values at 520 nm/495 nm.
The working solution consists of the following components: HEPES (pH 7.5) at a final concentration of 20 mM; MgCl2 at a final concentration of 10 mM; Brij-35 at a final concentration of 0.015%; DTT at a final concentration of 2 mM; and BSA at a final concentration of 50 μg/mL.
• a) The compound was dissolved in DMSO to achieve a storage concentration of 10 mM. • b) Various concentrations of the compound, 200 times the final concentration, were prepared in a compound dilution plate and transferred to an Echo plate. • c) The Echo instrument was used to transfer 150 nL of the compound from the Echo plate to a 384-well experimental plate. • d) 5 μL of TYK2 JH2 kinase, at three times the final concentration, was added to the 384-well experimental plate. • e) 5 μL of Tb, at three times the final concentration, was added to the 384-well experimental plate. • f) 5 μL of Tracer, at three times the final concentration, was added to the 384-well experimental plate. • g) The plate was centrifuged for 30 seconds and then incubated at room temperature for 60 minutes. • h) The fluorescence signal values at 520 nm/495 nm were measured using an Envision plate reader (PerkinElmer).
Data analysis was performed using the XL-Fit software to determine the IC50 of the compounds.

Chain of TYK2 JH2 pseudokinase (P29597 589-875 limits assumed): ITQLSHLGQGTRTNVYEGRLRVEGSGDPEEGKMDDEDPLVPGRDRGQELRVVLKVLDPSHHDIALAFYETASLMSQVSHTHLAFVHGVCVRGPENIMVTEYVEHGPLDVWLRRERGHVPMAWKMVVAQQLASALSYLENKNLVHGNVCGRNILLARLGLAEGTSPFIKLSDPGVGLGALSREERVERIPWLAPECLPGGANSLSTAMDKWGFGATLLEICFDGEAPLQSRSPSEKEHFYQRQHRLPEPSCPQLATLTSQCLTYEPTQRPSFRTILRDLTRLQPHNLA

| Structure (SMILES) | IC50 [nM] |
| --- | --- |
| [2H]C([2H])([2H])NC(=O)c1cnc(NC(=O)C2CC2)cc1Nc1cccc(-c2ncc(S(C)(=O)=O)cn2)c1OC [Hydrochloride of WX-001] | 0.27 |
| [2H]C([2H])([2H])NC(=O)c1cnc(NC(=O)C2CC2)cc1Nc1cccc(-c2ncc([S+](C)[O-])cn2)c1OC (stereo not shown) [Hydrochloride of WX-002] | 0.19 |
| CNC(=O)c1cnc(NC(=O)C2CC2)cc1Nc1cccc(-c2ncc(S(=O)(=O)N3CCC3)cn2)c1OC [Hydrochloride of WX-018] | 0.13 |
| [2H]C([2H])([2H])NC(=O)c1cnc(NC(=O)C2CC2)cc1Nc1cccc(-c2ncc(S(C)(=N)=O)cn2)c1OC (stereo not shown) [WX-003] | 0.34 |
| [2H]C([2H])([2H])NC(=O)c1cnc(NC(=O)C2CC2)cc1Nc1cccc(-c2ccc(S(C)(=O)=O)cn2)c1OC [WX-004] | 0.2 |

Biological target: Ba/F3-FL-TYK2-E957D cells (Homo sapiens, UniProt P29597, E957D, cells depend on it)
Experiment: Proliferation of Ba/F3-FL-TYK2-E957D cells (CellTiter-Glo)
Type: cell-based, mouse
Details: 72 hours, read-out: Half maximal inhibitory concentration IC50 for cells Ba/F3-FL-TYK2-E957D
From the text: Adenosine triphosphate (ATP) serves as a universal energy carrier in various life processes, representing the smallest unit of energy storage and transfer. The CellTiter-Glo™ Luminescent Cell Viability Assay Kit utilizes luciferase as a detection agent. During the luminescent process, luciferase requires the participation of ATP. By adding CellTiter-Glo™ reagent to the cell culture medium and measuring the luminescence, the light signal was directly proportional to the amount of ATP in the system, and ATP was positively correlated with the number of viable cells. Therefore, cell proliferation can be detected by measuring ATP content using the CellTiter-Glo kit. In this test, the cell lines used were Ba/F3-FL-TYK2-E957D and Ba/F3-TEL-TYK2. Ba/F3-FL-TYK2-E957D cells can stably express the exogenously introduced human TYK2-E957D gene, and the TYK2-E957D gene sequence contains both JH1 and JH2 domains. On the other hand, Ba/F3-TEL-TYK2 cells can stably express the exogenously introduced human TEL-TYK2 gene, and the TEL-TYK2 gene sequence contains only the JH1 domain of TYK2.
The cell lines were cultured in an incubator at 37° C. with 5% CO2. Regular passaging was performed, and cells in the logarithmic growth phase were selected for plating.
• a) The test compounds were prepared into a 10 mM solution with DMSO, and then diluted to 0.3 or 1 mM with DMSO. • b) Preparation of 1000× compound storage plate (tube): The compounds were 3-fold serially diluted from the highest concentration to the lowest concentration, creating 9 different concentrations. • c) Preparation of 20× compound working solution: 49 μL of cell culture medium was added to a flat-bottomed 96-well transparent drug plate. From the 1000× compound storage plate, 1 μL of the compound was pipetted into the cell culture medium in the 96-well transparent drug plate. In the solvent control, 1 μL of DMSO was added. After the compound or DMSO was added, the mixture was homogenized using a multi-channel pipette.
• a) Cells were stained with trypan blue and viable cells were counted to ensure a cell viability of 90% or more. • b) 95 μL of cell suspension (2000 cells/well) was added to each well of the compound assay cell plate, and cell-free culture medium containing 0.1% DMSO was added to the Min control wells. • c) Administration in the compound assay cell plate: 5 μL of 20× compound working solution was added to the cell culture plate. 5 μL of DMSO-cell culture medium mixture was added to the Max control wells. The final concentration of DMSO was 0.1%. • d) The culture plate was then incubated in an incubator at 37° C. with 5% CO2 for 72 hours.
The following steps were conducted in accordance with the instructions of the Promega CellTiter-Glo Luminescent Cell Viability Assay Kit (Promega-G7573). • a) CellTiter-Glo buffer was thawed and brought to room temperature. • b) CellTiter-Glo substrate was also brought to room temperature. • c) CellTiter-Glo buffer was added to a bottle of CellTiter-Glo substrate to dissolve the substrate, thereby preparing CellTiter-Glo working solution. • d) The mixture was slowly vortexed and shaken to be fully dissolved. • e) The cell culture plate was removed and allowed to equilibrate to room temperature for 10 minutes. • f) 50 μL (equal to half the volume of cell culture medium in each well) of CellTiter-Glo working solution was added to each well. • g) The culture plate was shaken on an orbital shaker for 2 minutes to induce cell lysis. • h) The plate was then left at room temperature for 10 minutes to stabilize the luminescent signal. • i) The luminescent signal was detected using a SpectraMax Paradigm plate reader.
Data analysis was conducted using GraphPad Prism 5.0 software. Nonlinear S-curve regression was employed to fit the data and generate dose-response curves. From these curves, the IC50 values were calculated.

Chain of Ba/F3-FL-TYK2-E957D cells (P29597 whole entry E957D): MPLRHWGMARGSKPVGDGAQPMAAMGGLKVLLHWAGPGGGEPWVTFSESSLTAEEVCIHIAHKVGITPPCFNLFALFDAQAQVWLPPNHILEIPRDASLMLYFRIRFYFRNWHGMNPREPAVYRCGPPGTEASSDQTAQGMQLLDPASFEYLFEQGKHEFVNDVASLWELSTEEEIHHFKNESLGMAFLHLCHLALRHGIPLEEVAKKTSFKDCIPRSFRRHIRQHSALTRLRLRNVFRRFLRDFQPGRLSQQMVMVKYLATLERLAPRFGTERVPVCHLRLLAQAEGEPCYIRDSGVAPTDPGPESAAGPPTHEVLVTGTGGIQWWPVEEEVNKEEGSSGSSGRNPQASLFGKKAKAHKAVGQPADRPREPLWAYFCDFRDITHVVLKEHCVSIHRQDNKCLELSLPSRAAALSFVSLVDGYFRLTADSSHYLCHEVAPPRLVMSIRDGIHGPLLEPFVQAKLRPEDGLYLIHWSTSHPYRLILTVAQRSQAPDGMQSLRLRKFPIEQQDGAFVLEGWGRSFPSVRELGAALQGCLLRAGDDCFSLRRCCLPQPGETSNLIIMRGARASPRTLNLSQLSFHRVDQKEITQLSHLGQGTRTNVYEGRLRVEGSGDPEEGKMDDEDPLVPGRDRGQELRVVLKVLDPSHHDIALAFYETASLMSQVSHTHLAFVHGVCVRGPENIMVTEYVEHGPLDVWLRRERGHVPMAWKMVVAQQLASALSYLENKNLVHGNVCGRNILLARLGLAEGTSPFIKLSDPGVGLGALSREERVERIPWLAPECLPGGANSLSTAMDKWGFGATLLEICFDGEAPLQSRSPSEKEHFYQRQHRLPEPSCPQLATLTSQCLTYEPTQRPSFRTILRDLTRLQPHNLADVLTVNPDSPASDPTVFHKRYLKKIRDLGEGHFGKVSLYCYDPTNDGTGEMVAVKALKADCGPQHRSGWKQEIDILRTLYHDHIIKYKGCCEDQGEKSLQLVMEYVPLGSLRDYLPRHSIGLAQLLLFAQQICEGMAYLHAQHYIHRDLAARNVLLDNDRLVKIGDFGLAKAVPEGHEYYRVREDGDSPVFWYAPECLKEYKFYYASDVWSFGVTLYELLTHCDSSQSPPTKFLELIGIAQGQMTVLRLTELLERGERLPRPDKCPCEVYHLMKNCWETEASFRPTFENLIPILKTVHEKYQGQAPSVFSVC

| Structure (SMILES) | GI50 [nM] |
| --- | --- |
| [2H]C([2H])([2H])NC(=O)c1cnc(NC(=O)C2CC2)cc1Nc1cccc(-c2ncc(S(C)(=O)=O)cn2)c1OC [Hydrochloride of WX-001] | 13.7 |
| [2H]C([2H])([2H])NC(=O)c1cnc(NC(=O)C2CC2)cc1Nc1cccc(-c2ncc([S+](C)[O-])cn2)c1OC (stereo not shown) [Hydrochloride of WX-002] | 19.2 |
| CNC(=O)c1cnc(NC(=O)C2CC2)cc1Nc1cccc(-c2ncc(S(=O)(=O)N(C)C)cn2)c1OC [Hydrochloride of WX-017] | 4 |
| CNC(=O)c1cnc(NC(=O)C2CC2)cc1Nc1cccc(-c2ncc(S(=O)(=O)N3CCC3)cn2)c1OC [Hydrochloride of WX-018] | 4.2 |
| [2H]C([2H])([2H])NC(=O)c1nnc(NC(=O)C2CC2)cc1Nc1cc(F)cc(-c2ccc(P(C)(C)=O)cc2)c1OC [Hydrochloride of WX-027] | 18.3 |
| CNC(=O)c1nnc(NC(=O)C2CC2)cc1Nc1cccc(-c2ncc(S3(=O)=NCCCC3)cn2)c1OC (stereo not shown) [Hydrochloride of WX-029] | 3.8 |
| COc1c(Nc2cc(NC(=O)C3CC3)nnc2C(N)=O)cccc1-c1ncc(S(=N)(=O)C(C)C)cn1 (stereo not shown) [Hydrochloride of WX-031] | 2.6 |
| COc1c(Nc2cc(NC(=O)C3CC3)nnc2C(N)=O)cccc1-c1ccc(S(=N)(=O)C(C)C)cn1 (stereo not shown) [Hydrochloride of WX-032] | 2.9 |
| [2H]C([2H])([2H])NC(=O)c1cnc(NC(=O)C2CC2)cc1Nc1cccc(-c2ncc(S(=N)(=O)C(C)C)cn2)c1OC (stereo not shown) [Trifluoroacetate of WX-009] | 12.1 |
| CN=S(=O)(c1ccc(-c2cccc(Nc3cc(NC(=O)C4CC4)nnc3C(=O)NC)c2OC)nc1)C(C)C (stereo not shown) [Trifluoroacetate of WX-014] | 10.9 |
| CNC(=O)c1cnc(NC(=O)C2CC2)cc1Nc1cc(F)cc(-c2ccc(S(C)(=O)=O)cc2)c1OC [Trifluoroacetate of WX-026] | 18.8 |
| COc1c(Nc2cc(NC(=O)C3CC3)nnc2C(N)=O)cccc1-c1ccc(P(=O)(C2CC2)C2CC2)cn1 [Trifluoroacetate of WX-035] | 6.7 |
| [2H]C([2H])([2H])NC(=O)c1cnc(NC(=O)C2CC2)cc1Nc1cccc(-c2ccc(S(C)(=O)=O)cn2)c1OC [WX-004] | 5.5 |
| [2H]C([2H])([2H])NC(=O)c1cnc(NC(=O)C2CC2)cc1Nc1cccc(-c2ncc(S(=O)(=O)N(C)C)cn2)c1OC [WX-005] | 2.2 |
| CN=S(=O)(c1cnc(-c2cccc(Nc3cc(NC(=O)C4CC4)nnc3C(=O)NC)c2OC)nc1)C(C)C (stereo not shown) [WX-013] | 12.1 |
| CCP(=O)(CC)c1ccc(-c2cccc(Nc3cc(NC(=O)C4CC4)nnc3C(=O)NC)c2OC)nc1 [WX-022] | 13.7 |
| CNC(=O)c1nnc(NC(=O)C2CC2)cc1Nc1cccc(-c2ccc(P(=O)(C(C)C)C(C)C)cc2)c1OC [WX-023] | 13.8 |
| CNC(=O)c1nnc(NC(=O)C2CC2)cc1Nc1cccc(-c2ccc(P(=O)(C3CC3)C3CC3)cc2)c1OC [WX-024] | 10 |
| CCP(=O)(CC)c1ccc(-c2cccc(Nc3cc(NC(=O)C4CC4)ncc3C(=O)NC)c2OC)cc1 [WX-025] | 12.7 |
| CNC(=O)c1nnc(NC(=O)C2CC2)cc1Nc1cccc(-c2ncc(S(=N)(=O)C3CC3)cn2)c1OC (stereo not shown) [WX-028] | 4 |
| CNC(=O)c1cnc(NC(=O)C2CC2)cc1Nc1cc(F)cc(-c2ncc(S(=O)(=O)C(C)C)cn2)c1OC [WX-030] | 2 |
| CNC(=O)c1cnc(NC(=O)C2CC2)cc1Nc1cccc(-c2ccc(S(=O)(=O)C(C)C)nn2)c1OC [WX-038] | 3 |
| CNC(=O)c1cnc(NC(=O)C2CC2)cc1Nc1cccc(-c2ccc(S(=O)(=O)C(C)C)nc2)c1OC [WX-039] | 4.7 |
